For the assay, the target named is T1, HCV Protease (HCV NS3-4A) (Hepatitis C virus genotype 1a, UniProt P27958).
T1 construct: HCV Protease: HCV NS3-4A, self-prepared; made in house
T1 sequence (P27958 1658-1711): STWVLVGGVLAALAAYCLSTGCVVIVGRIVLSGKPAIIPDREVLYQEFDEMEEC
T1 sequence (P27958 1027-1657): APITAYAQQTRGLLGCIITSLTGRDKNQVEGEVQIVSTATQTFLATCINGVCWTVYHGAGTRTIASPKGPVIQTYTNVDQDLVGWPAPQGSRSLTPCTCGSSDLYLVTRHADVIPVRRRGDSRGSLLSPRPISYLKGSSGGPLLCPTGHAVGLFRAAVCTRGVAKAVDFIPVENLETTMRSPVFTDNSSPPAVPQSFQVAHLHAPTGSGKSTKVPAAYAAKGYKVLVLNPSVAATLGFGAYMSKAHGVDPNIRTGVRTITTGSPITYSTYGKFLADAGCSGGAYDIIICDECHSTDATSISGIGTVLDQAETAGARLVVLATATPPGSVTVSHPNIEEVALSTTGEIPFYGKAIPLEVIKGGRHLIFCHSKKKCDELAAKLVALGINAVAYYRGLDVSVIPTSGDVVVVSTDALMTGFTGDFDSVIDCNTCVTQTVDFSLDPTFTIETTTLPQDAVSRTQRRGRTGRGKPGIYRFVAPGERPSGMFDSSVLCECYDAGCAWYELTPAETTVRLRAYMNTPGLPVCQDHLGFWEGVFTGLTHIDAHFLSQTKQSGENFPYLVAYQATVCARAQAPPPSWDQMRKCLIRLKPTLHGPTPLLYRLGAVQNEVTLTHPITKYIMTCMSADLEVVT
Briefly: HCV Protease (HCV NS3-4A) anti-activity assay, fluorescence quenching (FRET). Format: biochemical. The method, then:
Method of HCV Protease (HCV NS3-4A) Anti-Activity Assay:
HCV Protease (HCV NS3/4A) anti-activity was measured by an inter fluorescence quenching system. EDANS group and DABCYL group were bonded on each side of a peptide. When protein cleavage started, fluorescence quenching of EDANS by DABCYL was detected. We used a high throughput screening model for HCV NS3/4A protease inhibitors, the tested drugs were prepared with 5 different concentrations, positive control and negative control were set in the same time. In the optimized reaction system, fluorescence were determined at ex=355, em=520 by a Polarstar fluorescence detector. Calculate the inhibition rate of each concentration; calculate the half maximal inhibitory concentration (IC50) with the method of Reed-Muench.
Materials: HCV Protease: HCV NS3-4A, self-prepared, stored at −70. HCV Protease substrate (FRET-S): Ac-Asp-Glu-Asp(EDANS)-Glu-Glu-Abu-ψ-[COO]-Ala-Ser-Lys-(DABCYL)-NH2, supplied by AnaSpec USA, prepared of 100 μM by DMSO, distributed and stored at −20 without light. Buffer solution: 30 mM NaCl, 5 mM CaCl2, 10 mM DTT, 50 mM Tris (pH7.8).
Instrument: fluorescence detector Polarstar from Germany Company BMG
Preparation and operation: preparation of 10 mg/mL by DMSO, dilute of 10000, 2000, 400, 80, 16 ng/mL as tested concentrations by buffer solutions, adding 20 μL into each well, the total reaction system is 200 μL, to make the final concentrations of 1000, 200, 40, 8, 1.6 ng/mL. Add 140 μL buffer solution, 20 μL drug solution, 20 μL HCV protease, and 20 μL FRET-S substrate with final concentration of 0.25 μM into 96-well fluorescence microtiterplate, the reaction started at 37, set control wells of protease-substrate reaction and of isolate substrate and isolate protease, fluorescence signals were detected by fluorescence detector (ex=355,em=520). Calculate the inhibition rates of samples for each concentration by comparison of fluorescence value of sample in each well and the fluorescence control value of enzyme, calculate the half maximal inhibitory concentration (IC50) of samples to HCV protease with the method of Reed-Muench.
THF and Et2O were distilled from sodium metal and benzophenone. DCM, pentane and hexane were distilled form calcium hydride. Special raw materials and intermediates in the invention were supplied by Zannan SciTech Co. for ordered processing, Ltd. in Shanghai, others reagents were purchased from Shanghai reagent company, Aldrich, Acros etc. If intermediates or products of synthesis were not enough for the next step of reaction, the synthesis shall be repeated until it is sufficient. The HCV protease (HCV NS3-4A) inhibitory activity assays in the present invention were performed by relevant cooperation service units of China Institutes for Biological Science in Beijing.
`CC[C@H]1C[C@@]1(NC(=O)C1C[C@@H]2CN1C(=O)[C@H](C(C)(C)C)NC(=O)OCC1(C/C=C/COc3cccc4c3CN(C4)C(=O)O2)CC1)C(=O)NS(=O)(=O)C1CC1` (stereo partly shown) [Compound 15f]: the IC50 is 0.1 to 5 nM.

Compound `C=C[C@H]1C[C@@]1(NC(=O)C1C[C@@H]2CN1C(=O)[C@H](C(C)(C)C)NC(=O)OCC1(C/C=C/COc3cccc4c3CN(C4)C(=O)O2)CC1)C(=O)NS(=O)(=O)C1CC1` (stereo partly shown) [Compound 15g] displayed an IC50 of 0.1 to 5 nM.

In turn, `CC[C@H]1C[C@@]1(NC(=O)C1C[C@@H]2CN1C(=O)[C@H](C(C)(C)C)NC(=O)OCC(C)(C)C/C=C/COc1c(OC)ccc3c1CN(C3)C(=O)O2)C(=O)NS(=O)(=O)C1CC1` (stereo partly shown) [Compound 15h] had an IC50 of 5.1 to 50 nM.

For `C=C[C@H]1C[C@@]1(NC(=O)C1C[C@@H]2CN1C(=O)[C@H](C(C)(C)C)NC(=O)OCCCC/C=C/COc1c(OC)ccc3c1CN(C3)C(=O)O2)C(=O)NS(=O)(=O)C1CC1` (stereo partly shown) [Compound 15j], the IC50 fell in the range of 0.1 to 5 nM.

The compound `C=C[C@H]1C[C@@]1(NC(=O)C1C[C@@H]2CN1C(=O)[C@H](C(C)(C)C)NC(=O)OCCC/C=C/COc1c(OC)ccc3c1CN(C3)C(=O)O2)C(=O)NS(=O)(=O)C1CC1` (stereo partly shown) [Compound 15k] showed an IC50 of 0.1 to 5 nM.

Consider `CCC1CC1(NC(=O)C1CC2CN1C(=O)C(C(C)(C)C)NC(=O)OCCC=CCOc1c(OC)ccc3c1CN(C3)C(=O)O2)C(=O)NS(=O)(=O)C1CC1` (stereo not shown) [Compound 15m], for which the IC50 lay within 5.1 to 50 nM.

Compound `C=C[C@H]1C[C@@]1(NC(=O)C1C[C@@H]2CN1C(=O)[C@H](C(C)(C)C)NC(=O)OCC/C=C/COc1c(OC)ccc3c1CN(C3)C(=O)O2)C(=O)NS(=O)(=O)C1CC1` (stereo partly shown) [Compound 15n] yielded an IC50 of 0.1 to 5 nM.

Compound `C=CC1CC1(NC(=O)C1CC2CN1C(=O)C(C(C)(C)C)NC(=O)OCC(C)(C)CC=CCOc1c(OC)ccc3c1CN(C3)C(=O)O2)C(=O)NS(=O)(=O)C1CC1` (stereo not shown) [Compound 15p] had an IC50 of 0.1 to 5 nM.

With `CC[C@H]1C[C@@]1(NC(=O)C1C[C@@H]2CN1C(=O)[C@H](C(C)(C)C)NC(=O)OCCCC/C=C/COc1c(OC)ccc3c1CN(C3)C(=O)O2)C(=O)NS(=O)(=O)C1CC1` (stereo partly shown) [Compound 15q], the IC50 lay in the range of 5.1 to 50 nM.

As for `CC[C@H]1C[C@@]1(NC(=O)C1C[C@@H]2CN1C(=O)[C@H](C(C)(C)C)NC(=O)OCC(C)(C)CC/C=C/COc1cccc3c1CN(C3)C(=O)O2)C(=O)NS(=O)(=O)C1CC1` (stereo partly shown) [Compound 15r], the IC50 was 0.1 to 5 nM.

Consider `CCC1CC1(NC(=O)C1CC2CN1C(=O)C(C(C)(C)C)NC(=O)OCC(C)(C)CCCCOc1cccc3c1CN(C3)C(=O)O2)C(=O)NS(=O)(=O)C1CC1` (stereo not shown) [Compound 15u], for which the IC50 lay within 0.1 to 5 nM.

Take `CCC1CC1(NC(=O)C1CC2CN1C(=O)C(C(C)(C)C)NC(=O)OCC(C)(C)CCCCCOc1cc(OC)cc3c1CN(C3)C(=O)O2)C(=O)NS(=O)(=O)C1CC1` (stereo not shown) [Compound 15v]: the IC50 fell in the range of 0.1 to 5 nM.

In the case of `CC[C@H]1C[C@@]1(NC(=O)C1C[C@@H]2CN1C(=O)[C@H](C(C)(C)C)NC(=O)OCCCCCCOc1cccc3c1CN(C3)C(=O)O2)C(=O)NS(=O)(=O)C1CC1` (stereo partly shown) [Compound 15w], the IC50 was in the range of 0.1 to 5 nM.

For the compound `CC[C@H]1C[C@@]1(NC(=O)C1C[C@@H]2CN1C(=O)[C@H](C(C)(C)C)NC(=O)OCCCCCCCOc1cccc3c1CN(C3)C(=O)O2)C(=O)NS(=O)(=O)C1CC1` (stereo partly shown) [Compound 15x], the IC50 was in the range of 0.1 to 5 nM.

In turn, `CCC1CC1(NC(=O)C1CC2CN1C(=O)C(C(C)(C)C)NC(=O)OCCCCCCCCOc1cccc3c1CN(C3)C(=O)O2)C(=O)NS(=O)(=O)C1CC1` (stereo not shown) [Compound 15y] came in with an IC50 of 5.1 to 50 nM.

On to `CC[C@H]1C[C@@]1(NC(=O)C1C[C@@H]2CN1C(=O)[C@H](C(C)(C)C)NC(=O)OCCCCCCCCCOc1cccc3c1CN(C3)C(=O)O2)C(=O)NS(=O)(=O)C1CC1` (stereo partly shown) [Compound 15z], for which the IC50 is 5.1 to 50 nM.
